For two molecules, IC50 results are on record in patent US12083118B2, “Substituted 1,1′-biphenyl compounds, analogues thereof, and methods using same” (Arbutus Biopharma Corporation, priority 2018, dated 2024).

In this assay the target is PD-L1 (Homo sapiens (Human), UniProt Q9NZQ7). Kind of assay: HTRF Assay (PD-1/PD-L1). It counts as binding. Conditions: PD-L1 His protein 6 nM, PD-1 Fc protein 6 nM. As for the experimental part: PD-L1 small molecule inhibitors were diluted by 3-fold starting from 20 μM and a final concentration of 0.001 μM and added to the well. PD-1 Fc protein was added at the final concentration of 6 nM. PD-L1 His protein, PD-L1 small molecule inhibitors, and PD1 Fc proteins were added to the well in this order, with each 5 μl volume, and were incubated for 15 minutes at room temperature. […] The plate was read using PerkinElmer Envision plate reader and data was analyzed by Prism 6 software. Results are illustrated in Table 1
Sequence of PD-L1 (Q9NZQ7 19-238): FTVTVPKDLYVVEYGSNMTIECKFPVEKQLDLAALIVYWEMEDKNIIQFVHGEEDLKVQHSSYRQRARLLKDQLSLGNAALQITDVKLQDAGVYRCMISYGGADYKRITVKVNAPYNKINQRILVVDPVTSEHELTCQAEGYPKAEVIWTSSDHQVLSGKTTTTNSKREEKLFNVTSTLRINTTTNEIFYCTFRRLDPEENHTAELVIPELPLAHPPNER
(In TR-FRET formats the signal depends on donor and acceptor labels being close together.)

In general, pIC50 refers to the IC50 on a negative log10 scale, so that one unit is a factor of ten. Read a low pIC50 as a high IC50.

Structures are written as SMILES. pIC50: −log10 of the molar value.

`Cc1c(COc2cc(OCc3cncc(C#N)c3)c(CN3CCCC[C@H]3C(=O)O)cc2Cl)cccc1-c1cccc(COc2cc(OCc3cncc(C#N)c3)c(CN3CCCC[C@H]3C(=O)O)cc2Cl)c1C` [Example 27, (2S)-1-[[4-[[3-[3-[[4-[[(2S)-2-Carboxy-1-piperidyl]methyl]-2-chloro-5-[(5-cyano-3-pyridyl)methoxy]phenoxy]methyl]-2-methyl-phenyl]-2-methyl-phenyl]methoxy]-5-chloro-2-[(5-cyano-3-pyridyl)methoxy]phenyl]methyl] piperidine-2-carboxylic acid] showed a pIC50 of 8.89.
`COc1cc(OCc2cccc(-c3cccc(COc4cc(OC)c(CN5CCCC[C@H]5C(=O)O)cc4Cl)c3C)c2C)c(Cl)cc1CN1CCCC[C@H]1C(=O)O` [Example 29, (2S)-1-[[4-[[3-[3-[[4-[[(2S)-2-carboxy-1-piperidyl]methyl]-2-chloro-5-methoxy-phenoxy]methyl]-2-methyl-phenyl]-2-methyl-phenyl]methoxy]-5-chloro-2-methoxy-phenyl]methyl]piperidine-2-carboxylic acid] showed a pIC50 of 8.92.
